Test results published in patent US9862761B2, “Composition and method for preventing or treating a tauopathy” (The Board of Trustees of the University of Illinois, priority 2009, dated 2018).
Read-outs that look alike come from different tables or passages of the source. Square brackets hold non-standard residues; d marks the D form. Ends that are not written are not given here. pS = N[C@@H](COP(=O)(O)O)C(=O)O

How the values were obtained:
[1] = system: fast axonal transport (FAT) in isolated squid axoplasm; assay: Squid axoplasm motility assays (vesicle motility); type: cell-based, Loligo pealii; details: for prevention of 2-18 peptide-induced anterograde FAT inhibition: co-perfused with 2-18 peptide; for prevention of 2-18 peptide-induced anterograde FAT inhibition / prevention of 6D tau-mediated anterograde FAT inhibition: I-2 50 nM; for prevention of 6D tau-mediated anterograde FAT inhibition: co-perfused with 6D tau, okadaic acid 200 nM; for effect on FAT (axonal transport): perfused alone into squid axoplasm (tau 2 μM; ING-135 100 nM); for effect on anterograde FAT rates / effect on retrograde FAT rates: perfused into isolated squid axoplasm; for effect on anterograde FAT rates: 2 μM
[2] = system: fast axonal transport (FAT) in isolated squid axoplasm; details: cited from earlier work
fyn kinase = target: T1, fyn kinase (Homo sapiens, UniProt P06241); assay: In vitro phosphorylation of tau by fyn kinase; type: biochemical; details: compared to wild-type tau; 1 μM tau
T1 construct: purchased Millipore
T1 sequence (P06241 whole entry): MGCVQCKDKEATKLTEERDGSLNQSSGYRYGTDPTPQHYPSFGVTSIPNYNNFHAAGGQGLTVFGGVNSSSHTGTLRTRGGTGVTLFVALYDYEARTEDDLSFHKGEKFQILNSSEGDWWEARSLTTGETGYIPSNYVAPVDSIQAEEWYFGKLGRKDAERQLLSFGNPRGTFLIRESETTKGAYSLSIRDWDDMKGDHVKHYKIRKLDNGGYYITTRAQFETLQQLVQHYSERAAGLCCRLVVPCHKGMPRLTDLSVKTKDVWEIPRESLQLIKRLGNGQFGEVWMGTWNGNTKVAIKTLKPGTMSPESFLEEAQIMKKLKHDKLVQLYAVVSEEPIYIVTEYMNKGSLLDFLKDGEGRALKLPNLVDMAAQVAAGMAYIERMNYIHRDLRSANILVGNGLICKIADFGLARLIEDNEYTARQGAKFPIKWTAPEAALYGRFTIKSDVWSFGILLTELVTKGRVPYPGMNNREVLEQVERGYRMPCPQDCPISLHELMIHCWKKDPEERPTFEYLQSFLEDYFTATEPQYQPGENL
Protocol: Samples were heated to 60° C. for 5 minutes and separated on 10% acrylamide gels via SDS-PAGE. The proteins were transferred to nitrocellulose membranes, blocked in 2% non-fat dry milk Tris-buffered saline (NFDM-TBS; Tris 50 mM, NaCl 150 mM, pH 7.4). The membranes were incubated in primary antibodies (R1-1:300,000 and 9G3-1:8000) overnight at 4° C. The next day, the membranes were rinsed in TBS+0.1% TWEEN 20 and then incubated in the appropriate secondary antibody (1:5000; diluted in 2% NFDM-TBS). Immunoreactivity was visualized using ECL solution and the level of reactivity was quantified by measuring the optical density of immunoreactive bands with ImageJ software (v1.41, NIH). The average pixel intensities of the main tau bands were measured. Data are expressed as the ratio of 9G3 intensity to R1 intensity (error bars—s.e.m.).
Phosphorylation was carried out at 32° C. for […]. Samples were diluted 1:1 in 2× Laemmli buffer at 0, 10, 20, 40, and 60 minutes to stop the reaction. Samples were stored at −20° C. until used for immunoblotting.
Fyn kinase is a non-receptor tyrosine kinase known to phosphorylate tau at Tyr18 and phosphoTyrl8 (pTyr18) and is found in tau inclusions of AD brains (Lee, et al. (2004) supra). Phosphorylation at Tyr18 by fyn kinase prevents tau-mediated inhibition of anterograde FAT in squid axoplasm.

[3] = system: endogenous squid microtubules; assay: Microtubule-binding (sedimentation) assay; details: 5 μM tau construct, squid optic lobe cytosol
[4] = system: kinesin-1 associated with vesicles; assay: Motor proteins on membrane vesicle fractions purified from squid axoplasms; details: 40 minutes incubation
Protocol: After 40 minutes of incubation, axoplasms were transferred, along with perfusion buffer, to low protein binding 1.5 ml centrifuge tubes containing 200 μl of homogenization buffer (0.25 mM sucrose, 1 mM EDTA, 10 mM Hepes, pH 7.4, 1/100 protease inhibitor cocktail (Sigma), 1/200 phosphatase inhibitor cocktail set II (Calbiochem), 2 μM K252a (Calbiochem), 1 μM PKI (Upstate, Lake Placid, N.Y.)), and carefully homogenized by two passages through a 23-G syringe needle and five passages through a 27-G syringe needle using a 1-ml Hamilton pipette. Axoplasm homogenates were adjusted to 30% iodixanol by mixing 200 μl of axoplasm homogenates with 300 μl of solution D (50% (w/v) iodixanol, 10 mM MgCl2 in 250 mM sucrose). […] Samples were centrifuged at 250,000 g max for 1 hour at 4° C. in an RP55-S SORVALL rotor. Three hundred microliters containing floating vesicles were collected from immediately below the 5% iodixanol interface, and 60 μl of 6× loading sample buffer was added.
To determine whether tau filaments induce the dissociation of kinesin-1 from cargo, “sister” axoplasms were obtained from individual animals and treated with monomeric or filamentous hTau40 (2 μM). […] After 40 minutes of incubation, axoplasmic vesicle fractions were isolated and kinesin-1 levels were evaluated with an antibody against KHCs. […]

squid microtubules = assay: Microtubule morphology at axoplasm periphery after perfusion; type: cell-based; details: 2 μM perfused into axoplasm
From the text: Microtubule rigidity is increased when tau binds to the microtubule surface, and this effect is observable even at low, nonsaturating tau concentrations (Feigner, et al. (1997) J. Cell Biol. 138:1067-1075; Morfini, et al. (2007) supra). As an additional indicator of hTau40's ability to interact with squid microtubules, axoplasm was perfused with tau and the morphology of microtubules at the axoplasm periphery was examined.

PP2A = PP2A (Homo sapiens, UniProt P67775); details: even at micromolar concentrations; cited from earlier work
Sequence of PP2A (P67775 whole entry): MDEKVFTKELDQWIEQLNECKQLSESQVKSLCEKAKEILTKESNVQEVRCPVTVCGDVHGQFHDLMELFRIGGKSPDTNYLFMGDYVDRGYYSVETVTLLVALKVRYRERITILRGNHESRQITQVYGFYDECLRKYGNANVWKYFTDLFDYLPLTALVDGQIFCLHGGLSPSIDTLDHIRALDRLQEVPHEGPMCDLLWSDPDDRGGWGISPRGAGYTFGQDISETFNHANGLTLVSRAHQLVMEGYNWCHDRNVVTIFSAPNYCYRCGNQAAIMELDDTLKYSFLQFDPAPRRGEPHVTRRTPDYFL

[5] = Tau polymerization with arachidonic acid, electron microscopy; type: physicochemical; details: 4 μM tau, 75 μM arachidonic acid
Protocol: Tau polymerization was induced using AA according to known methods (King, et al. (1999) Biochemistry 38:14851-14859), except that KCl was substituted for NaCl in the polymerization buffer. […] Briefly, tau protein (4 μM) was incubated at room temperature in reaction buffer (50 mM HEPES, pH 7.6, 50 mM KCl, 5 mM DTT) in the presence of 75 μM AA (in ethanol vehicle). Samples of soluble tau were prepared for perfusion in the same manner, except that arachidonic acid was excluded from the polymerization buffer. Control mixtures containing AA but lacking tau were prepared in parallel. Final ethanol concentration in all samples was 3.8%.
Polymerization reactions were allowed to proceed for 6 hours, fixed with 2% glutaraldehyde, spotted onto 300 mesh formvar/carbon-coated copper grids (Electron Microscopy Sciences, Hatfield, Pa.), and negatively stained with 2% uranyl acetate (King, et al. (1999) supra). […]
To determine whether these domains are involved in FAT inhibition, two tau constructs were assayed, Δ2-18 and 1-421, containing deletions at the extreme amino- and carboxy-termini, respectively. […] Therefore, the formation of tau filaments under these experimental conditions was assessed by electron microscopic analysis.

[6] = coperfused with hTau40 filaments (2 μM), SB203580 5 μM, CREBpp 0.5 mM, ING-135 100 nM, okadaic acid 100 nM, inhibitor-2 50 nM

Cn1cc(C2=C(c3coc4ccccc34)C(=O)NC2=O)c2cc(Br)ccc21 [ING-135, reference compound]
prevention of 2-18 peptide-induced anterograde FAT inhibition ([1]; ING-135 100 nM): completely prevented | prevention of 6D tau-mediated anterograde FAT inhibition ([1]; ING-135 100 nM): completely blocked | block of tau filament-induced inhibition of anterograde FAT [1, 6]: blocked | effect on FAT (axonal transport) [1]: had no effect

C[S+]([O-])c1ccc(-c2nc(-c3ccncc3)c(-c3ccc(F)cc3)[nH]2)cc1 (centres unmarked) [SB203580, reference compound]
block of tau filament-induced inhibition of anterograde FAT [1]: did not block

C=C1[C@@H](O)[C@@H]2O[C@]3(CC[C@H](/C=C/[C@@H](C)[C@@H]4CC(C)=C[C@@]5(O[C@H](C[C@@](C)(O)C(=O)O)CC[C@H]5O)O4)O3)CC[C@H]2O[C@@H]1[C@@H](O)C[C@H](C)[C@H]1O[C@@]2(CCCCO2)CC[C@H]1C [okadaic acid, reference compound]
prevention of 6D tau-mediated anterograde FAT inhibition ([1]; ING-135 100 nM): abolished | prevention of 6P tau-mediated anterograde FAT inhibition ([1]; co-perfused with 6P tau): The same effect was noted | block of tau filament-induced inhibition of anterograde FAT [1, 6]: blocked | effect on FAT, perfused alone ([2]; okadaic acid alone, concentrations up to 1 μM): have no effect

AEPRQEFEVMEDHAGTY [2-18 peptide]
effect on anterograde FAT rates [1]: induced a significant inhibition | effect on anterograde FAT rates ([1]; listed as PAD): inhibit

AT8 tau: tau with Ser199, Ser202, Thr205 mutated to glutamic acid, AT8 pseudophosphorylated mutant
effect on retrograde FAT rates [1]: unaffected | effect on anterograde FAT rates [1]: significantly reduced | maximal level of phosphorylation at Tyr18 by fyn kinase (fyn kinase): lower | rate of phosphorylation at Tyr18 by fyn kinase (fyn kinase): slower

K23: tau construct lacking both alternatively spliced N-terminal exons and all four MTBRs [reference compound]
sedimentation with taxol-assembled squid microtubules (supernatant vs pellet) [3]: remained in the supernatant fraction

KRREILSRRPpSYR (KRREILSRRP[pS]YR) [CREBpp, reference compound]
block of effects of 1-421 tau filaments on FAT ([1]; coperfused with 1-421 tau filaments): also blocked | block of tau filament-induced inhibition of anterograde FAT [1, 6]: blocked | effect on FAT, perfused alone ([2]; CREBpp alone in squid axoplasm): has no effect

active GSK-3β: recombinant, active GSK-3β from Sigma [reference compound]
levels of dynein intermediate chain on vesicles [4]: unaffected

hTau40 filaments: recombinant hTau40 polymerized into filaments with arachidonic acid
effect on FAT (axonal transport) [1]: inhibition | effect on retrograde FAT rates [1]: remained unaffected | effect on anterograde FAT rates [1]: inhibited | effect on anterograde FAT rates ([1]; listed as hTau40 F): significantly reduced | effect on anterograde FAT rates ([1]; listed as tau filaments): inhibit | morphology of peripheral microtubules (squid microtubules): did not produce changes in microtubule morphology | levels of dynein intermediate chain on vesicles [4]: unaffected

inhibitor-2 [reference compound]
prevention of 2-18 peptide-induced anterograde FAT inhibition ([1]; ING-135 100 nM): completely prevented | prevention of 6D tau-mediated anterograde FAT inhibition ([1]; ING-135 100 nM): complete prevention | block of tau filament-induced inhibition of anterograde FAT [1, 6]: prevented FAT inhibition | effect on PP2A (PP2A): has no effect

monomeric hTau40: full-length tau, longest isoform in adult human brain, 441 amino acids, soluble monomer
effect on FAT (axonal transport) ([1]; listed as full-length wild-type tau monomers): had no effect | effect on FAT (axonal transport) ([1]; listed as soluble tau): does not affect | effect on retrograde FAT rates [1]: no effect | effect on anterograde FAT rates [1]: no effect | sedimentation with taxol-assembled squid microtubules (supernatant vs pellet) [3]: depleted from the supernatant fraction and found in association with the microtubule-enriched pellet fraction | morphology of peripheral microtubules (squid microtubules): caused peripheral microtubules to acquire a straight, rigid appearance | filament formation under axoplasm perfusion buffer conditions [5]: form morphologically indistinguishable filaments
